Experimental data published in patent US20200346047A1, “METHOD AND KIT FOR HOME CONTROLLED OVARIAN STIMULATION FOR IN VITRO FERTILIZATION” (priority 2019, published 2020).
Several values for one entry are separate records, joined by “and”; a condition that tells them apart may be missing. Identical values can stand only once. Square brackets hold non-standard residues; d marks the D form. Peptide text beside a SMILES is read from it. d(hArg(Et2)) = CCN=C(NCC)NCCCC[C@@H](N)C(=O)O; hArg(Et2) = CCN=C(NCC)NCCCC[C@H](N)C(=O)O; dPhe(4-Cl) = N[C@H](Cc1ccc(Cl)cc1)C(=O)O; d2Nal = N[C@H](Cc1ccc2ccccc2c1)C(=O)O; d3Pal = N[C@H](Cc1cccnc1)C(=O)O

Experiments:
LH blood hormone level [1] = assay: LH blood level under conventional GnRH antagonist injection protocol (Example 1); type: in vivo, female patients
Description: Five female patients were treated with a GnRH antagonist protocol requiring injections of medications.
One patient, patient no. 1, was injected with 150 Units of FSH on days 3 to 12; half a syringe of 150 mcg/0.5 mL of ganirelix acetate on days 11 and 12; and 50 mg of clomiphene citrate on days 3 to 12; and 2.5 mg of letrozole on days 3 to 7. Luteinizing hormone (LH) blood level was 4.3 mIU/mL on day 10 and dropped to 2 mIU/mL on day 12.
A second patient, patient no. 2, was injected with 75 Units of FSH on days 4 to 12 and 150 Units on day 13; half a syringe of 150 mcg/0.5 mL of ganirelix acetate on days 11 to 13; 50 mg of clomiphene citrate on days 10 to 12, and 2.5 mg of letrozole on days 3 to 7. Luteinizing hormone (LH) blood level was 12.0 mIU/mL on day 11 and dropped to 6.3 mIU/mL on day 13.
Three patients, numbered 3 to 5, were injected with 75, 150 and 225 Units of FSH, respectively, on days 4 to 12 and one third a syringe of 150 mcg/0.5 mL of ganirelix acetate on days 11 to 13. Patient no. 3 received 50 mg of clomiphene citrate on days 4 to 12, and 2.5 mg of letrozole on days 4 to 8. Patient no. 4 received 100 mg of clomiphene citrate and 2.5 mg of letrozole on days 4 to 8, and 50 mg of clomiphene citrate on days 9 to 11. Patient no. 5 received no clomiphene citrate or letrozole. Luteinizing hormone (LH) blood level was 12.0, 18.0 and 14.6 mIU/mL, respectively, on day 10 and dropped to 4.9, 16.0 and 14.1 mIU/mL, respectively, on day 12.
Table 2 below provides a comparison of the efficacy of conventional Ganirelex/Cetrotide injectables treatment for IVF in the five representative patients from Example 1 with the home controlled ovarian hyperstimulation method described herein in the five representative patients from Example 2.

LH blood hormone level [2] = assay: LH blood level under home controlled ovarian hyperstimulation method with vaginal elagolix (Example 2); type: in vivo, female patients; settings: lower dose of elagolix taken as a vaginal suppository instead of orally
Description: On day 9 of the menstrual cycle, the patient is directed to orally take 50 to 150 mg, preferably 100 mg, (one, two, or three 50 mg oral tablets) of clomiphene citrate and to either insert vaginally or take orally, depending on the patient's preference, a gonadotropin-releasing hormone (GnRH) antagonist such as elagolix (marketed as ORILISSA®), instead of the expensive injections of ganirelix acetate (GANIRELEX®) or cetrorelix acetate (marketed as CETROTIDE®) used routinely in conventional practices. A dose of 25 mg (⅛^th of a pill) up to 200 mg of elagolix (1 full pill), preferably 25 mg, will be used, with the dose being the same whether inserted vaginally or taken orally. Elagolix is a GnRH antagonist that is conventionally used in the treatment of pain associated with endometriosis in women, not for the treatment of infertility. By blocking the GnRH receptor, elagolix suppresses LH release by the pituitary gland and thus prevents LH surge. Ultimately, elagolix suppresses gonadal steroid production, thereby reducing circulating levels of sex hormones such as progesterone, estradiol, and testosterone. Elagolix is generally an oral medication (oral tablet), however in the present method, elagolix is a tablet taken mainly as a vaginal suppository, but may be taken orally based on the patient's preference. […]

| Structure (SMILES) | LH blood hormone level AFTER medication intake (LH blood hormone level [1]; Example 1, one value per patient (patients 1-5), after ganirelix injections, listed as Conventional Ganielex/Cetrotide Injectables) | LH blood hormone level BEFORE medication intake (LH blood hormone level [1]; Example 1, one value per patient (patients 1-5), before ganirelix injections, listed as Conventional Ganielex/Cetrotide Injectables) | % Drop in blood LH hormone level (LH blood hormone level [1]; Example 1, one value per patient (patients 1-5), listed as Conventional Ganielex/Cetrotide Injectables) | Luteinizing hormone (LH) blood level (LH blood hormone level [1]; patient no. 1, day 10, half a syringe of 150 mcg/0.5 mL ganirelix acetate on days 11 and 12) | drop in LH blood hormone levels (LH blood hormone level [1]; patient no. 1, day 10 to day 12) | Luteinizing hormone (LH) blood level (LH blood hormone level [1]; patient no. 1, day 12, half a syringe of 150 mcg/0.5 mL ganirelix acetate on days 11 and 12) | Luteinizing hormone (LH) blood level (LH blood hormone level [1]; patient no. 2, day 11, half a syringe of 150 mcg/0.5 mL ganirelix acetate on days 11 to 13) | drop in LH blood hormone levels (LH blood hormone level [1]; patient no. 2, day 11 to day 13) | Luteinizing hormone (LH) blood level (LH blood hormone level [1]; patient no. 2, day 13, half a syringe of 150 mcg/0.5 mL ganirelix acetate on days 11 to 13) | Luteinizing hormone (LH) blood level (LH blood hormone level [1]; patient no. 3, day 10, one third a syringe of 150 mcg/0.5 mL ganirelix acetate on days 11 to 13) | drop in LH blood hormone levels (LH blood hormone level [1]; patient no. 3, day 10 to day 12) | Luteinizing hormone (LH) blood level (LH blood hormone level [1]; patient no. 3, day 12, one third a syringe of 150 mcg/0.5 mL ganirelix acetate on days 11 to 13) | Luteinizing hormone (LH) blood level (LH blood hormone level [1]; patient no. 4, day 10, one third a syringe of 150 mcg/0.5 mL ganirelix acetate on days 11 to 13) | drop in LH blood hormone levels (LH blood hormone level [1]; patient no. 4, day 10 to day 12) | Luteinizing hormone (LH) blood level (LH blood hormone level [1]; patient no. 4, day 12, one third a syringe of 150 mcg/0.5 mL ganirelix acetate on days 11 to 13) | Luteinizing hormone (LH) blood level (LH blood hormone level [1]; patient no. 5, day 10, one third a syringe of 150 mcg/0.5 mL ganirelix acetate on days 11 to 13, no clomiphene citrate or letrozole) | drop in LH blood hormone levels (LH blood hormone level [1]; patient no. 5, day 10 to day 12) | Luteinizing hormone (LH) blood level (LH blood hormone level [1]; patient no. 5, day 12, one third a syringe of 150 mcg/0.5 mL ganirelix acetate on days 11 to 13, no clomiphene citrate or letrozole) | effectiveness as GnRH antagonist in the patients (LH blood hormone level [2]) |
| --- | --- | --- | --- | --- | --- | --- | --- | --- | --- | --- | --- | --- | --- | --- | --- | --- | --- | --- | --- |
| CCN=C(NCC)NCCCC[C@H](NC(=O)[C@H](CC(C)C)NC(=O)[C@@H](CCCCNC(=NCC)NCC)NC(=O)[C@H](Cc1ccc(O)cc1)NC(=O)[C@H](CO)NC(=O)[C@@H](Cc1cccnc1)NC(=O)[C@@H](Cc1ccc(Cl)cc1)NC(=O)[C@@H](Cc1ccc2ccccc2c1)NC(C)=O)C(=O)N1CCC[C@H]1C(=O)N[C@H](C)C(N)=O [Ganirelex, ganirelix acetate] (Ac-[d2Nal][dPhe(4-Cl)][d3Pal]SY[d(hArg(Et2))]L[hArg(Et2)]P[dA]-NH2) | 2.0 mIU/mL and 6.3 mIU/mL and 4.9 mIU/mL and 16.0 mIU/mL | 4.3 mIU/mL and 12.0 mIU/mL (2×) and 18.0 mIU/mL | 3.4% | 4.3 mIU/mL | 53.5% | 2 mIU/mL | 12.0 mIU/mL | 47.5% | 6.3 mIU/mL | 12.0 mIU/mL | 59.25% | 4.9 mIU/mL | 18.0 mIU/mL | 11.1% | 16.0 mIU/mL | 14.6 mIU/mL | 3.4% | 14.1 mIU/mL |  |
| COc1cccc(-c2c(C)n(Cc3c(F)cccc3C(F)(F)F)c(=O)n(C[C@H](NCCCC(=O)O)c3ccccc3)c2=O)c1F [elagolix] |  |  |  |  |  |  |  |  |  |  |  |  |  |  |  |  |  |  | effective GnRH antagonist |
